This is an account of results in patent US20240246981A1, “[…] DERIVATIVES AS INHIBITORS OF […]-PEPTIDE CYCLOTRANSFERASE AND […]-PEPTIDE CYCLOTRANSFERASE LIKE PROTEIN” (Boehringer Ingelheim International GmbH, priority 2022, published 2024).

A value given as a limit tells only on which side of the number the result lay.

QPCT, sequence (Q16769 29-361): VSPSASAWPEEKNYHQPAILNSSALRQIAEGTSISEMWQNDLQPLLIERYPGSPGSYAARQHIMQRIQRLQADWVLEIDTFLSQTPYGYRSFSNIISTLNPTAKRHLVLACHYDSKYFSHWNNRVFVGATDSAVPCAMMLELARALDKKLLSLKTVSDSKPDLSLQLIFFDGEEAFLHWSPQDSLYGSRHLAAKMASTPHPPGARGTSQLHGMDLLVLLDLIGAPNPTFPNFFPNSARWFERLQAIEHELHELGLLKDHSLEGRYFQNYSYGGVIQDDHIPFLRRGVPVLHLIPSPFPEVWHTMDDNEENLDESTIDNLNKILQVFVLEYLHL
QPCTL, sequence (Q9NXS2 whole entry): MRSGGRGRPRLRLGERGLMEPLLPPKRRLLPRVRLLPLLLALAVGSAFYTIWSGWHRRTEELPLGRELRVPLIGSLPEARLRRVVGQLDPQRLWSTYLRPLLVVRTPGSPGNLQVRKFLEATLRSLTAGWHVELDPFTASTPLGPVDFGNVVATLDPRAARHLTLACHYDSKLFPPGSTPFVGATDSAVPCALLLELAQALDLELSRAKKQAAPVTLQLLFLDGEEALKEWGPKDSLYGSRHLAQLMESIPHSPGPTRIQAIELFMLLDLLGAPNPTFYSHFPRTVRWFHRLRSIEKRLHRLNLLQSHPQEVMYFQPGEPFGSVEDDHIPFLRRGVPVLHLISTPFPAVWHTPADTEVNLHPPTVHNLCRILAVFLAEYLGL

In the first data set the test system is SIRPα signalling induced by A549 cells. Nature of the data set: Assay B: SIRPα signalling assay using A549 cells. The conditions noted are these: Homo sapiens, compounds of the invention, Table 4, read-out: Inhibition of SIRα signalling induced by A549 cells: IC50. Format: cell-based, human. Here is the method: Two cell types are independently used: the Raji cell line (lymphoblastlike human cell line derived from B lymphocytes from a Burkitt's lymphoma patient in 1963) and A549 cells (adenocarcinomic human alveolar basal epithelial cells).
Test compounds were dissolved in 100% DMSO and serially diluted into a white 384-well microtiter cell culture plate (PerkinElmer #60076780 in case of Raji assay; PDL-coated plates Greiner #781945 in case of A549 assay). 5000 Raji cells (ATCC #CC86) or 5000 A549 cells (ATCC #CCL-185) in Assay Complete Cell Plating reagent 30 (DiscoverX 93-0563R30B) were added per well. The assay plate was incubated for 48 h at 37° C., 95% humidity and 5% CO2. 15000 reporter cells (Jurkat PathHunter SIRPα V1, DiscoverX #93-1135C19) were added to each well, and the plate was incubated for 5 h at 37° C., 95% humidity and 5% CO2. Bioassay reagent 1 of the PathHunter Bioassay detection kit (DiscoverX 93-0001) was added to each well of the plate using a multichannel pipette followed by a 15 min incubation at room temperature. Afterwards bioassay reagent 2 was added followed by 60 min incubation at room temperature (incubation in the dark).
The analysis of the data was performed using the luminescence signal generated by beta-galactosidase in the PathHunter reporter cell line. The luminescence measurement was done using a Pherastar Multi-Mode Reader. Dose-response curves & IC50 data were calculated with 4-parameter sigmoidal dose response formula.
For the compound `Cn1cnnc1C1CCN(c2c(C#N)cccc2-c2cnc3nc(-c4cccc(Cl)c4)ccn23)CC1` [compound 28], the IC50 was found to be 282 nM.
As to `Cn1cnnc1C1CCN(c2c(C#N)cccc2-c2cncc(-c3ncco3)c2)CC1` [compound 29], the IC50 turned out to be 81 nM.
The same measure, in the same setting: then `Cn1ccnc1-c1cncc(-c2cccc(C#N)c2N2CCC(c3nncn3C)CC2)c1` [compound 30], with 124 nM.
Same read-out and setting: for `Cn1cnnc1C1CCN(c2c(C#N)cccc2-c2cnc(F)c(OC(F)(F)F)c2)CC1` [compound 31] the value was 135 nM.
On the same count and under the same terms, for `Cn1cnnc1C1CCN(c2c(C#N)cccc2-c2ccnnc2)CC1` [compound 32] the value was 69 nM.
`Cn1cnnc1C1CCN(c2c(C#N)cccc2-c2cnc3nc[nH]c3c2)CC1` [compound 33]: the half-inhibitory concentration (IC50) amounted to 210 nM.
On to `Cn1cnnc1C1CCN(c2c(C#N)cccc2-c2cnc(F)c(OCc3ccccc3)c2)CC1` [compound 35], for which the concentration for half-maximal inhibition (IC50) came to 18 nM.
Still for that read-out and setting: then `Cn1cnnc1C1CCN(c2c(C#N)cccc2-c2cnc(F)c(OCC3CC3)c2)CC1` [compound 36], with 10 nM; and `Cn1cnnc1C1CCN(c2c(C#N)cccc2-c2cncc(C3CCCCO3)c2)CC1` (stereo not drawn) [compound 39], with 18 nM.
Same read-out and setting: for `Cn1cnnc1C1CCN(c2c(C#N)cccc2-c2cnc3nnn(C)c3c2)CC1` [compound 40] the value was 109 nM; for `Cn1cnnc1C1CCN(c2c(C#N)cccc2-c2cnc(F)c(Cl)c2)CC1` [compound 42], 72 nM.

The target of another data set is QPCT (Homo sapiens (Human), UniProt Q16769). Nature of the data set: Assay A: biochemical QPCT activity assay (MALDI-TOF MS). The conditions noted are these: compounds of the invention, Table 2; read-out: Inhibition of QPCT: IC50. How it is done:
(§1) QPCT or QPCTL dependent conversion of N-terminal glutamine to pyroglutamate of CD47 was monitored via MALDI-TOF MS. Test compounds were dissolved in 100% DMSO and serially diluted into clear 1,536-well microtiter plates. Enzymatic reactions were set up in assay buffer containing 20 mM Tris pH 7.5, 0.1 mM TCEP, 0.01% BSA, and 0.001% Tween20. […] The plates were incubated for 10 min in a humidified incubator at 24° C. Subsequently, 2.5 μL of CD47 peptide substrate surrogate (^19[…]^33) was added to each well (final concentration: 10 μM for QPCTL/20 μM for QPCT). The plates were mixed for 30 sec at 1,000 rpm and subsequently incubated for 40 min in a humidified incubator at 24° C. […] The plates were sealed with an adhesive foil, mixed for 30 s at 1,000 rpm and stored at room temperature until preparation of the MALDI target plates. […] QPCT or QPCTL activity was monitored by calculating the ratio between product and internal standard signals followed by normalization to high (100% activity) and low (0% activity) controls. Determination of compound potencies was obtained by fitting the dose-response data to a four-parameter logistical equation.
As for `Cn1cnnc1C1CCN(c2c(C#N)cccc2-c2cnc3nc(-c4cccc(Cl)c4)ccn23)CC1` [compound 28], the IC50 was 12 nM.
Same read-out and setting: for `Cn1cnnc1C1CCN(c2c(C#N)cccc2-c2cncc(-c3ncco3)c2)CC1` [compound 29] the value was 25 nM.
For the compound `Cn1ccnc1-c1cncc(-c2cccc(C#N)c2N2CCC(c3nncn3C)CC2)c1` [compound 30], the IC50 amounted to 3 nM.
The same measure, in the same setting: then `Cn1cnnc1C1CCN(c2c(C#N)cccc2-c2cnc(F)c(OC(F)(F)F)c2)CC1` [compound 31], with 71 nM.
The same measure, in the same setting: then `Cn1cnnc1C1CCN(c2c(C#N)cccc2-c2ccnnc2)CC1` [compound 32], with 6 nM; and `Cn1cnnc1C1CCN(c2c(C#N)cccc2-c2cnc3nc[nH]c3c2)CC1` [compound 33], with 6 nM; and `Cn1cnnc1C1CCN(c2c(C#N)cccc2-c2cnc(F)c(OCc3ccccc3)c2)CC1` [compound 35], with 12 nM.
For `Cn1cnnc1C1CCN(c2c(C#N)cccc2-c2cnc(F)c(OCC3CC3)c2)CC1` [compound 36], the IC50 was determined as 2 nM.
The same measure, in the same setting: for `Cn1cnnc1C1CCN(c2c(C#N)cccc2-c2cncc(C3CCCCO3)c2)CC1` (stereo not drawn) [compound 39] the value was 29 nM; for `Cn1cnnc1C1CCN(c2c(C#N)cccc2-c2cnc3nnn(C)c3c2)CC1` [compound 40], 4 nM; for `Cn1cnnc1C1CCN(c2c(C#N)cccc2-c2cnc(F)c(Cl)c2)CC1` [compound 42], 24 nM.

Another data set addresses QPCTL (Homo sapiens (Human), UniProt Q9NXS2). Nature of the data set: Assay A: biochemical QPCTL activity assay (MALDI-TOF MS). To be noted: compounds of the invention, Table 2; read-out: Inhibition of QPCTL: IC50. How it is done: as §1
Regarding `Cn1cnnc1C1CCN(c2c(C#N)cccc2-c2cnc3nc(-c4cccc(Cl)c4)ccn23)CC1` [compound 28], the IC50 worked out at 2 nM.
Same read-out and setting: then `Cn1cnnc1C1CCN(c2c(C#N)cccc2-c2cncc(-c3ncco3)c2)CC1` [compound 29], with 3 nM.
Turning to `Cn1ccnc1-c1cncc(-c2cccc(C#N)c2N2CCC(c3nncn3C)CC2)c1` [compound 30], the half-inhibitory concentration (IC50) stood at 1 nM.
Still for that read-out and setting: for `Cn1cnnc1C1CCN(c2c(C#N)cccc2-c2cnc(F)c(OC(F)(F)F)c2)CC1` [compound 31] the value was 9 nM; for `Cn1cnnc1C1CCN(c2c(C#N)cccc2-c2ccnnc2)CC1` [compound 32], 1 nM.
Turning to `Cn1cnnc1C1CCN(c2c(C#N)cccc2-c2cnc3nc[nH]c3c2)CC1` [compound 33], the IC50 turned out to be 1 nM.
On the same count and under the same terms, then `Cn1cnnc1C1CCN(c2c(C#N)cccc2-c2cnc(F)c(OCc3ccccc3)c2)CC1` [compound 35], with 2 nM; and `Cn1cnnc1C1CCN(c2c(C#N)cccc2-c2cnc(F)c(OCC3CC3)c2)CC1` [compound 36], with 1 nM.
Still for that read-out and setting: then `Cn1cnnc1C1CCN(c2c(C#N)cccc2-c2cncc(C3CCCCO3)c2)CC1` (stereo not drawn) [compound 39], with 5 nM; and `Cn1cnnc1C1CCN(c2c(C#N)cccc2-c2cnc3nnn(C)c3c2)CC1` [compound 40], with 1 nM.
Same read-out and setting: then `Cn1cnnc1C1CCN(c2c(C#N)cccc2-c2cnc(F)c(Cl)c2)CC1` [compound 42], with 4 nM.

In a further data set the test system is SIRPα signalling induced by Raji cells. The data set is described as follows: Assay B: SIRPα signalling assay using Raji cells. It is filed as cell-based, human. To be noted: Homo sapiens, compounds of the invention, Table 4, read-out: Inhibition of SIRα signalling induced by Raji cells: IC50. How it is done: Bioassay reagent 1 of the PathHunter Bioassay detection kit (DiscoverX 93-0001) was added to each well of the plate using a multichannel pipette followed by a 15 min incubation at room temperature. Afterwards bioassay reagent 2 was added followed by 60 min incubation at room temperature (incubation in the dark).
The analysis of the data was performed using the luminescence signal generated by beta-galactosidase in the PathHunter reporter cell line. The luminescence measurement was done using a Pherastar Multi-Mode Reader.
For the compound `Cn1cnnc1C1CCN(c2c(C#N)cccc2-c2cnc3nc(-c4cccc(Cl)c4)ccn23)CC1` [compound 28], the IC50 was 250 nM.
Still for that read-out and setting: for `Cn1cnnc1C1CCN(c2c(C#N)cccc2-c2cncc(-c3ncco3)c2)CC1` [compound 29] the value was 121 nM; for `Cn1ccnc1-c1cncc(-c2cccc(C#N)c2N2CCC(c3nncn3C)CC2)c1` [compound 30], 135 nM; for `Cn1cnnc1C1CCN(c2c(C#N)cccc2-c2cnc(F)c(OC(F)(F)F)c2)CC1` [compound 31], 244 nM.
For `Cn1cnnc1C1CCN(c2c(C#N)cccc2-c2ccnnc2)CC1` [compound 32], the IC50 came out at 158 nM.
Take `Cn1cnnc1C1CCN(c2c(C#N)cccc2-c2cnc3nc[nH]c3c2)CC1` [compound 33]: the 50% inhibitory concentration (IC50) stood at 501 nM.
The same measure, in the same setting: for `Cn1cnnc1C1CCN(c2c(C#N)cccc2-c2cnc(F)c(OCc3ccccc3)c2)CC1` [compound 35] the value was 51 nM.
With `Cn1cnnc1C1CCN(c2c(C#N)cccc2-c2cnc(F)c(OCC3CC3)c2)CC1` [compound 36], the IC50 is 19 nM.
The same measure, in the same setting: for `Cn1cnnc1C1CCN(c2c(C#N)cccc2-c2cncc(C3CCCCO3)c2)CC1` (stereo not drawn) [compound 39] the value was 133 nM; for `Cn1cnnc1C1CCN(c2c(C#N)cccc2-c2cnc3nnn(C)c3c2)CC1` [compound 40], 214 nM; for `Cn1cnnc1C1CCN(c2c(C#N)cccc2-c2cnc(F)c(Cl)c2)CC1` [compound 42], 105 nM.

Test system in another data set: not listed separately
The data set is described as follows: Assay C: permeability in CACO-2 cells. It is filed as in vitro ADME. To be noted: human, pH 7.2; Caco-2, apical to basolateral; compounds of the invention, Table 7. Here is the method: Compounds are dissolved in appropriate solvent (like DMSO, 1-20 mM stock solutions). […] The transport solution (TL) is applied to the apical or basolateral donor side for measuring A-B or B-A permeability (3 filter replicates), respectively. Samples are collected at the start and end of experiment from the donor and at various time intervals for up to 2 hours also from the receiver side for concentration measurement by HPLC-MS/MS or scintillation counting. Sampled receiver volumes are replaced with fresh receiver solution.
`Cn1cnnc1C1CCN(c2c(C#N)cccc2-c2cnc3nc(-c4cccc(Cl)c4)ccn23)CC1` [compound 28] registered a Papp A→B of 5.5 ×10⁻⁶ cm/s.
On the same count and under the same terms, then `Cn1cnnc1C1CCN(c2c(C#N)cccc2-c2cncc(-c3ncco3)c2)CC1` [compound 29], with 3.1 ×10⁻⁶ cm/s.
The same measure, in the same setting: for `Cn1ccnc1-c1cncc(-c2cccc(C#N)c2N2CCC(c3nncn3C)CC2)c1` [compound 30] the value was less than 0.3 ×10⁻⁶ cm/s; for `Cn1cnnc1C1CCN(c2c(C#N)cccc2-c2cnc(F)c(OC(F)(F)F)c2)CC1` [compound 31], 39 ×10⁻⁶ cm/s.
For the compound `Cn1cnnc1C1CCN(c2c(C#N)cccc2-c2ccnnc2)CC1` [compound 32], the Papp A→B worked out at 0.3 ×10⁻⁶ cm/s.
On the same count and under the same terms, for `Cn1cnnc1C1CCN(c2c(C#N)cccc2-c2cnc3nc[nH]c3c2)CC1` [compound 33] the value was less than 0.1 ×10⁻⁶ cm/s; for `Cn1cnnc1C1CCN(c2c(C#N)cccc2-c2cnc(F)c(OCc3ccccc3)c2)CC1` [compound 35], 24 ×10⁻⁶ cm/s.
For the compound `Cn1cnnc1C1CCN(c2c(C#N)cccc2-c2cnc(F)c(OCC3CC3)c2)CC1` [compound 36], the apparent permeability from apical to basolateral (Papp A→B) amounted to 34 ×10⁻⁶ cm/s.
On the same count and under the same terms, for `Cn1cnnc1C1CCN(c2c(C#N)cccc2-c2cncc(C3CCCCO3)c2)CC1` (stereo not drawn) [compound 39] the value was 10 ×10⁻⁶ cm/s; for `Cn1cnnc1C1CCN(c2c(C#N)cccc2-c2cnc3nnn(C)c3c2)CC1` [compound 40], 0.1 ×10⁻⁶ cm/s.
Same read-out and setting: then `Cn1cnnc1C1CCN(c2c(C#N)cccc2-c2cnc(F)c(Cl)c2)CC1` [compound 42], with 36 ×10⁻⁶ cm/s.

Staying with this data set, now noted: human, pH 7.2; Caco-2; compounds of the invention, Table 7.
For `Cn1cnnc1C1CCN(c2c(C#N)cccc2-c2cnc3nc(-c4cccc(Cl)c4)ccn23)CC1` [compound 28], the efflux ratio is 12.4.
Take `Cn1cnnc1C1CCN(c2c(C#N)cccc2-c2cncc(-c3ncco3)c2)CC1` [compound 29]: the efflux ratio was determined as 16.5.
As to `Cn1ccnc1-c1cncc(-c2cccc(C#N)c2N2CCC(c3nncn3C)CC2)c1` [compound 30], the efflux ratio is more than 32.
In the case of `Cn1cnnc1C1CCN(c2c(C#N)cccc2-c2cnc(F)c(OC(F)(F)F)c2)CC1` [compound 31], the efflux ratio worked out at 2.2.
For `Cn1cnnc1C1CCN(c2c(C#N)cccc2-c2ccnnc2)CC1` [compound 32], the efflux ratio came to 28.1.
With `Cn1cnnc1C1CCN(c2c(C#N)cccc2-c2cnc3nc[nH]c3c2)CC1` [compound 33], the efflux ratio is more than 27.
The same measure, in the same setting: then `Cn1cnnc1C1CCN(c2c(C#N)cccc2-c2cnc(F)c(OCc3ccccc3)c2)CC1` [compound 35], with 2.4; and `Cn1cnnc1C1CCN(c2c(C#N)cccc2-c2cnc(F)c(OCC3CC3)c2)CC1` [compound 36], with 2.4.
The same measure, in the same setting: then `Cn1cnnc1C1CCN(c2c(C#N)cccc2-c2cncc(C3CCCCO3)c2)CC1` (stereo not drawn) [compound 39], with 5.1.
As to `Cn1cnnc1C1CCN(c2c(C#N)cccc2-c2cnc3nnn(C)c3c2)CC1` [compound 40], the efflux ratio was 100.
Still for that read-out and setting: for `Cn1cnnc1C1CCN(c2c(C#N)cccc2-c2cnc(F)c(Cl)c2)CC1` [compound 42] the value was 2.
